Laboratory results from US9375448B2, “Method for isolating a chemotherapeutic agent resistant cancer cell with stem cell properties” (THE ROGOSIN INSTITUTE, INC., priority 2010, dated 2016).
Entries after “also recorded” stand apart in the source; their conditions may differ.

Columns and labels:
[1] = system: RENCA cells; assay: Histological examination of agarose coated agarose beads containing RENCA cells one week after drug exposure; type: cell-based; parameters: key to Effect: −: no change; +: complete loss of cell viability; +/−: an intermediate effect; settings: for Effect: histology one week following exposure; for Destruction of cells within the encapsulated tumor colonies: beads treated with the drug
Protocol: Agarose coated, agarose beads containing RENCA cells were prepared in accordance with Smith, et al., Canc Res., 71(3): 716-724 (2011); and Smith et al., Canc. Res. 71(3): 725-735 (2011), the disclosures of which are incorporated by reference. The resulting beads were cultured in medium for 12 weeks.
Samples of beads were then exposed to a single, known anti-cancer drug, at one of three varying concentrations. The exposure involved incubation of the beads in the presence of the drug for a period of time based upon the known, half life of the drug.
Following incubation, the beads were washed, twice, and transferred to naïve culture media. Controls were also prepared, which included untreated beads, as well as beads exposed to whatever vehicle was used to solubilize the drug.
Histological examination of the beads was undertaken one week following exposure to the drug. […]

[2] = system: RENCA cells; assay: 18 week culture of drug treated RENCA beads, sectioned and stained to count cell nuclei, normalized to DMSO treated beads; type: cell-based; settings: for beads that developed 1 or 2 large colonies: week 18
Protocol: The Paclitaxel and Docetaxel treated beads were cultured, under standard conditions, as were control beads which had been exposed to DMSO, which was the vehicle for delivery of the two drugs. The culture period was 18 weeks.
Approximately 10% of the beads developed 1 or 2 large colonies, at week 18.
In order to quantify the cell loss, representative beads from the DMSO control, Paclitaxel and Docetaxel groups were sectioned and stained, using standard methods, in order to permit counting of cell nuclei. Results were normalized to the DMSO treated beads.
In the case of treatment with Paclitaxel, there was an initial loss over weeks 1-3, of about 25% of cells per colony. The majority of colonies did contain viable cells. […] In the case of docetaxel treated beads, these lost viable cells very rapidly, such that only 1-2 viable cells were present in the colonies 6 weeks after treatment.

CC(=O)O[C@@]12CO[C@@H]1C[C@H](O)[C@@]1(C)C(=O)[C@H](O)C3=C(C)[C@@H](OC(=O)[C@H](O)[C@@H](NC(=O)OC(C)(C)C)c4ccccc4)C[C@@](O)([C@@H](OC(=O)c4ccccc4)[C@H]21)C3(C)C [Docetaxel]
Effect ([1]; Treatment time 1 day, dose 0.5 μg/ml): +/−
Effect ([1]; Treatment time 1 day, dose 5 μg/ml): +/−
Effect ([1]; Treatment time 1 day, dose 50 μg/ml): +/−
Destruction of cells within the encapsulated tumor colonies [1]: did not destroy all of the cells
viable cells per colony ([2]; 5 μg/ml, 6 weeks post-treatment): 1-2 cells per colony
beads that developed 1 or 2 large colonies ([2]; 5 μg/ml): Approximately 10%
beads that developed 1 or 2 large colonies ([2]; 5 μg/ml, listed as docetaxel): about 10%

CN(Cc1cnc2nc(N)nc(N)c2n1)c1ccc(C(=O)N[C@@H](CCC(=O)O)C(=O)O)cc1 [Methotrexate]
Effect ([1]; Treatment time 1 day, dose 0.45 μg/ml): −
Effect ([1]; Treatment time 1 day, dose 4.5 μg/ml): −
Effect ([1]; Treatment time 1 day, dose 45 μg/ml): −

COc1cccc2c1C(=O)c1c(O)c3c(c(O)c1C2=O)C[C@@](O)(C(=O)CO)C[C@@H]3O[C@H]1C[C@H](N)[C@H](O)[C@H](C)O1 [Doxorubicin]
Effect ([1]; Treatment time 2 days, dose 5 μg/ml): +
Effect ([1]; Treatment time 2 days, dose 50 μg/ml): +
Effect ([1]; Treatment time 2 days, dose 100 μg/ml): +

N.N.O=C([O-])C1(C(=O)[O-])CCC1.[Pt+2] [Carboplatin]
Effect ([1]; Treatment time 5 days, dose 25 μg/ml): +/−
Effect ([1]; Treatment time 5 days, dose 250 μg/ml): +
Effect ([1]; Treatment time 5 days, dose 2500 μg/ml): +

N.N.[Cl][Pt][Cl] [Cisplatin]
Effect ([1]; Treatment time 1 hr, dose 60 ng/ml): −
Effect ([1]; Treatment time 1 hr, dose 600 ng/ml): −
Effect ([1]; Treatment time 1 hr, dose 6000 ng/ml): −

CCC1=C[C@@H]2CN(C1)Cc1c([nH]c3ccccc13)[C@@](C(=O)OC)(c1cc3c(cc1OC)N(C)[C@H]1[C@@](O)(C(=O)OC)[C@H](OC(C)=O)[C@]4(CC)C=CCN5CC[C@]31[C@@H]54)C2 [Vinorelbine]
Effect ([1]; Treatment time 2 days, dose 0.1 μg/ml): −
Effect ([1]; Treatment time 2 days, dose 1 μg/ml): +/−
Effect ([1]; Treatment time 2 days, dose 10 μg/ml): +/−

CC(=O)O[C@H]1C(=O)[C@@]2(C)[C@H]([C@H](OC(=O)c3ccccc3)[C@]3(O)C[C@H](OC(=O)[C@H](O)[C@@H](NC(=O)c4ccccc4)c4ccccc4)C(C)=C1C3(C)C)[C@]1(OC(C)=O)CO[C@@H]1C[C@@H]2O [Paclitaxel]
Effect ([1]; Treatment time 1 day, dose 0.35 μg/ml): −
Effect ([1]; Treatment time 1 day, dose 3.5 μg/ml): +/−
Effect ([1]; Treatment time 1 day, dose 35 μg/ml): +/−
Destruction of cells within the encapsulated tumor colonies [1]: did not destroy all of the cells
cell number at week 18 ([2]; 3.5 μg/ml, 18 weeks culture): return to the pre-treatment number of cells; also recorded: equivalent to the control DMSO beads
cell number in beads over time after treatment ([2]; 3.5 μg/ml, first 6 weeks post-treatment): loss of cells for 6 weeks
initial loss of cells per colony ([2]; weeks 1-3 after treatment, normalized to DMSO treated beads): about 25%
